Results from patent US20080145465A1, “Sesquiterpene lactone extract from artemisia leucodes for reducing inflammation and down-regulating pro-inflammatory gene expression” (priority 2006, published 2008).
Entries after “also recorded” stand apart in the source; their conditions may differ.

Legend:
COX-2 = test: Quantitative real-time RT-PCR: COX-2 gene expression in LPS-elicited RAW 264.7 macrophages; assay type: cell-based, murine; settings: for COX-2 gene expression (LPS control = 100; values less than 100 represent inhibition): Table 4 experiment
Description: (§1) RAW 264.7 murine monocyte/macrophages (ATCC TIB-71) were maintained in Dulbecco's Modified Eagle Medium (D-MEM, Invitrogen Corp., Carlsbad, Calif.) supplemented with 10% fetal bovine serum (FBS, Invitrogen Corp., Carlsbad, Calif.) and 1% streptomycin and were kept in a humidified 37° C. incubator with 5% CO2. Cells were subcultured by scraping when plates reached 90% confluency with a 1:5 ratio.
(§2) Murine RAW macrophages 264.7 were plated at a density of 0.4×10^6 cells per well in 24-well plates 12 hours prior to treatment. A stock solution of AL-1 was created by completely dissolving the dry extract as in Example 1 in 95% ethanol. Two hours before elicitation with lipopolysaccharide (LPS, 1 μg/ml, Sigma, St. Louis, Mo.) the cells were treated with various concentrations of AL-1 (25-200 μg/ml) or vehicle control, maintaining a final concentration of 0.5% ethanol for all treatments. After six hours of treatment, RNA was extracted from cells using TRIzol® reagent (Invitrogen Corp., Carlsbad, Calif.) according to the manufacturer instructions. RNAs were quantified spectrophotometrically at 260 nm and stored at −80° C. until real-time PCR could be performed.
(§3) RNA was purified by treating with DnaseI (Invitrogen Corp., Carlsbad, Calif.) before performing reverse transcription with Stratascript Reverse Transcriptase, an RNA dependent DNA polymerase (Stratagene, La Jolla, Calif.) according to the manufacturer instructions. The cDNAs obtained were then amplified by real-time PCR. Expression of COX-2, iNOS, IL1β and β-actin gene expression levels was quantified using a Stratagene Mx 3000P™ Real-Time PCR System (Stratagene, La Jolla, Calif.). Primers for each gene were designed using Primer Express® version 2.0 software (Applied Biosystems, Foster City, Calif.; Table 2) (Giulietti et al., 2001; Overbergh et al., 2003).
(§4) Real-time PCR analyses were carried out using a Brilliant® SYBR® Green PCR master mix kit (Stratagene, La Jolla, Calif.) according to kit instructions. Samples were amplified using the following program: two minutes incubation at 50° C.; initial denaturation and polymerase activation at 95° C. for ten minutes; 40 PCR cycles consisting of 15 seconds at 95° C. and 60 seconds at 60° C. each. The RNA expression of the target genes were analyzed by ΔΔCT methods (Winer et al., 1999) using β-Actin gene as normalizer. The ΔΔCT values obtained from these analyses directly reflect the relative mRNA quantities for the marker gene in response to specific treatments. Lower ΔΔCT values indicate greater anti-inflammatory activity. The changes in gene expression as reflected by ΔΔCT values can also be expressed as percentage genetic inhibition [(1−ΔΔCT)×100] indicating anti-inflammatory properties of the test compounds. Amplification of specific transcripts was further confirmed by obtaining melting curve profiles. All samples were run in duplicate; four independent analyses were performed.

iNOS = test: Quantitative real-time RT-PCR: iNOS gene expression in LPS-elicited RAW 264.7 macrophages; assay type: cell-based, murine; settings: for iNOS gene expression (LPS control = 100; values less than 100 represent inhibition): Table 4 experiment
Description: as §1, §2, §3, §4

IL1β = test: Quantitative real-time RT-PCR: IL1β gene expression in LPS-elicited RAW 264.7 macrophages; assay type: cell-based, murine; settings: for IL1β gene expression (LPS control = 100; values less than 100 represent inhibition): Table 4 experiment; for effect on IL1β gene expression (in words): LPS-elicited RAW macrophages
Description: as §1, §2, §3, §4

COX-1 = biological target: T1, COX-1 (Ovis aries, UniProt P05979); test: Colorimetric COX inhibitor screening assay, COX-1; assay type: biochemical, ovine; settings: data not shown
T1 construct: purchased Cayman Chemical Company
T1 sequence (P05979 25-600): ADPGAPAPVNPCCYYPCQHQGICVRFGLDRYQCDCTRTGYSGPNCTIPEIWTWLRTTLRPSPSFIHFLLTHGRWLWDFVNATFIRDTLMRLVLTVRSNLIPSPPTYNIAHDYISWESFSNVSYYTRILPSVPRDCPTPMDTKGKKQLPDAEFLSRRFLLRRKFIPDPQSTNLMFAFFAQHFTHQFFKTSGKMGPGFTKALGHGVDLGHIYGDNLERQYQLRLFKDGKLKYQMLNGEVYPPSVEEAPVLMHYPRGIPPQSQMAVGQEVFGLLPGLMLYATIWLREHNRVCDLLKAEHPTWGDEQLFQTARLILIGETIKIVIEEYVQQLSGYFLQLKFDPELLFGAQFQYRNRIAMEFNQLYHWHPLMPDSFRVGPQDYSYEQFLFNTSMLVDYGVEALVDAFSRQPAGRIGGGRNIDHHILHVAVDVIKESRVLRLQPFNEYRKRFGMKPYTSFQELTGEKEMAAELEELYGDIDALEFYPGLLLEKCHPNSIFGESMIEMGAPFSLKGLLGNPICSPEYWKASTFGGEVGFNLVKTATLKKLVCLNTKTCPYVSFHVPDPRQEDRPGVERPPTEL
Description: An ovine COX inhibitor screening assay (Cayman Chemical Company, Ann Arbor, Mich.) was used to measure inhibition of purified COX-1 and COX-2. This assay measures the peroxidase component of cyclooxygenases colorimetrically by monitoring the appearance of oxidized N,N,N′,N′-tetramethyl-p-phenylenediamine (TMPD) at 590 nm. Tablets of Vioxx (rofecoxib; Merck & Co., Inc., Whitehouse Station, N.J.) were ground and dissolved in methanol (1 mg/mL) to use as a positive control. AL-1, leukomisin, and austricin were also dissolved in methanol at 1 mg/mL. The assay was performed following manufacturer instructions. Vioxx, vehicle (100% initial activity), or treatments were added to a 96-well plate along with 180 μL assay mixture provided by the manufacturer containing 150 μL assay buffer, 10 μL heme, and 10 μL enzyme (COX-1 or COX-2). A background correction row received no enzyme and 10 μL additional assay buffer. After 5 min incubation at room temp, 20 μL of a colorimetric substrate solution containing TMPD and 20 μL arachadonic acid diluted in assay buffer were added to the plate. The plate was incubated for 5 min and the absorbance was read at 590 nm using a microplate reader (Molecular Devices, Sunnyvale, Calif.). To calculate percent inhibition, average absorbance was calculated for each sample (n=3). The background blank well absorbance was subtracted from each sample. […]

For CC1=CC(=O)C2=C(C)C[C@H](O)[C@@H]3[C@H](OC(=O)[C@H]3C)[C@@H]12 (single isomer, unassigned) [austricin], the “COX-2 gene expression (LPS control = 100; values less than 100 represent inhibition)” value (COX-2; 25 μg) was 120, the “COX-2 gene expression (LPS control = 100; values less than 100 represent inhibition)” value (COX-2; 50 μg) was 116 and the “COX-2 gene expression (LPS control = 100; values less than 100 represent inhibition)” value (COX-2; 75 μg) was 102. The “iNOS gene expression (LPS control = 100; values less than 100 represent inhibition)” value (iNOS; 25 μg) was 102, the “iNOS gene expression (LPS control = 100; values less than 100 represent inhibition)” value (iNOS; 50 μg) was 108 and the “iNOS gene expression (LPS control = 100; values less than 100 represent inhibition)” value (iNOS; 75 μg) was 113. For the same molecule, the “IL1β gene expression (LPS control = 100; values less than 100 represent inhibition)” value (IL1β; 25 μg) was 58, the “IL1β gene expression (LPS control = 100; values less than 100 represent inhibition)” value (IL1β; 50 μg) was 65 and the “IL1β gene expression (LPS control = 100; values less than 100 represent inhibition)” value (IL1β; 75 μg) was 65. For the same molecule, the “effect on IL1β gene expression (in words)” value (IL1β) was “only marginal activity” and the “COX-1 enzyme inhibition (in words)” value (COX-1) was “did not inhibit COX-1; also recorded: did not significantly inhibit”.

For CC1=CC(=O)C2=C(C)CC[C@@H]3[C@H](OC(=O)[C@H]3C)[C@@H]12 [leukomisin], the “COX-2 gene expression (LPS control = 100; values less than 100 represent inhibition)” value (COX-2; 25 μg) was 140, the “COX-2 gene expression (LPS control = 100; values less than 100 represent inhibition)” value (COX-2; 50 μg) was 165 and the “COX-2 gene expression (LPS control = 100; values less than 100 represent inhibition)” value (COX-2; 75 μg) was 159. For the same molecule, the “effect on COX-2 gene expression (in words)” value (COX-2; LPS-elicited RAW macrophages) was “no affect on gene expression; also recorded: no activity”, the “iNOS gene expression (LPS control = 100; values less than 100 represent inhibition)” value (iNOS; 25 μg) was 127 and the “iNOS gene expression (LPS control = 100; values less than 100 represent inhibition)” value (iNOS; 50 μg) was 151. The “iNOS gene expression (LPS control = 100; values less than 100 represent inhibition)” value (iNOS; 75 μg) was 126, the “effect on iNOS gene expression (in words)” value (iNOS; LPS-elicited RAW macrophages) was “no affect on gene expression; also recorded: no activity” and the “IL1β gene expression (LPS control = 100; values less than 100 represent inhibition)” value (IL1β; 25 μg) was 110. The “IL1β gene expression (LPS control = 100; values less than 100 represent inhibition)” value (IL1β; 50 μg) was 161, the “IL1β gene expression (LPS control = 100; values less than 100 represent inhibition)” value (IL1β; 75 μg) was 281 and the “effect on IL1β gene expression (in words)” value (IL1β) was “no affect on gene expression; also recorded: no activity”. The “COX-1 enzyme inhibition (in words)” value (COX-1) was “did not inhibit COX-1 activity; also recorded: did not significantly inhibit”.
